Measurements taken from PMC10265666, “Lung SPLUNC1 Peptide Derivatives in the Lipid Membrane Headgroup Kill Gram-Negative Planktonic and Biofilm Bacteria” (Biomacromolecules, 2023).
Where “and” joins values, the source holds several entries; their conditions need not be identical. Identical values can stand only once.

Assays:
[1] = test system: Klebsiella pneumoniae biofilms; assay: Biofilm growth (crystal violet); format: cell-based
Description: Minimum inhibitory concentration (MIC, defined as the minimum AMP concentration to prevent bacterial growth) and biofilm data were obtained by UV–vis spectroscopy using a BioTek Epoch 2 microplate reader.
The planktonic samples in the wells were then drained by inversion of the plate. The plate was washed with PBS prior to staining with 125 μL of 0.5% Crystal Violet (in 20% ethanol) for 15 min. Excess stain was removed by washing twice with distilled water. The bacterial remnants on the walls of the wells were analyzed at λ = 620 nm to observe any adhered bacteria. The absorbance values as percent of control (no AMP) do show a tendency of bacterial adherence to the wells. In this work, we will refer to the adhered bacteria after incubation at 37 °C for 16 h as biofilms.

3T3 fibroblast cells = format: cell-based, murine
Description: The TetraZ cell counting kit was used to quantify cell proliferation and cell viability. It is based on a water-soluble tetrazolium salt, which, when reduced by cellular dehydrogenases, produces a chromophore. ∼5 × 10^4 immortalized mouse RAW 264.7 macrophages and 3T3 fibroblast cells were incubated in a 96-well plate and allowed to attach for 24 h. AMPs in cell culture medium (DMEM D5796, 10% FBS, 1% P/S) were added to the wells. Cells were incubated at 37 °C for 4 h with the SPLUNC1 peptide derivatives at 8, 16, 32, and 64 μM concentrations. 10 μL of TetraZ was added and incubated for an additional 1.5 h at 37 °C. A Biotek Epoch 2 visible spectrophotometer was used to read the absorbance. The absorbance by the chromophore at λ = 450nm is proportional to the number of live cells (see standard curves, Figures S1 and S2, and additional cell line results (Figures S3 and S4) in the S.I.).

[2] = Circular dichroism secondary structure in G(−)IM ULVs; format: physicochemical; conditions: 10 μM peptide, 15 mM PBS pH 7, 37 °C
Description: Unilamellar vesicles (ULVs) of ∼600 Å diameter were prepared using an Avanti extruder: 200 μL of 20 mg/ml G(−)IM lipid in 15 mM PBS was extruded 21 times through Nucleopore filters of size 500 Å using 0.2 mL Hamilton syringes in the Avanti extruder. The final concentration of G(−)IM lipid in the ULVs was determined gravimetrically to be 15 mg/ml. Concentrated ULVs were added to 3 mL of 10 μM peptide in 15 mM PBS at pH 7 to create lipid/peptide molar ratios between 0:1 and 70:1. The samples remained at room temperature for ∼16 h before the CD measurement. Data were collected in 3 mL quartz cuvettes using a Jasco 1500 CD spectrophotometer at 37 °C in the Center for Nucleic Acids Science and Technology at Carnegie Mellon University. The samples were scanned from 200 to 240 nm 20 times, and the ellipticity (ϵ) results were averaged. Temperature was controlled at 37 °C via a Peltier element and water circulation through the sample compartment. Nitrogen gas was used at a flow rate between 20 and 25 ft^3/h (CFH). The parameters for scanning were: speed 100 nm/min, step size 1.0 nm, response time 1 second, bandwidth 1 nm, and sensitivity of 20 mdeg. OriginPro 2019 (OriginLab, Northampton, MA) was used to carry out a linear least-squares fit of the smoothed ellipticity traces to four secondary structural motifs representing α-helix, β-sheet, β-turn, and random coil.[20] This analysis gives a percentage match of each of the secondary structural motifs to the total sample ellipticity. Data were finally converted to mean residue ellipticity, taking into account the peptide concentration (10 μMolar) and number of amino acids (N), using the equation: MRE = (10^4/N)ϵ deg cm^2/dmol.

[3] = Circular dichroism secondary structure in Euk33 ULVs; format: physicochemical; conditions: 10 μM peptide, 15 mM PBS pH 7, 37 °C
[4] = test system: eukaryotic cells vs bacteria; assay: Therapeutic index (eukaryotic cell kill concentration / bacterial kill concentration); format: cell-based
Description: But more important than cytotoxicity is the therapeutic index (TI), which is the concentration at which ≥90% of eukaryotic cells are killed divided by the concentration at which ≥90% of bacteria are killed. For A4-153, this TI value is an estimated ≈ 128 μM/16 μM ≈ 8. TI for A4-157 is an estimated 128 μM/24 μM ≈ 5, and the TI for A4-183 is an estimated 64 μM/20 μM ≈ 3.

[5] = G(−)IM/peptide molar ratio 10:1
[6] = G(−)IM/peptide molar ratio 15:1
[7] = G(−)IM/peptide molar ratio 20:1
[8] = G(−)IM/peptide molar ratio 30:1
[9] = G(−)IM/peptide molar ratio 50:1
[10] = G(−)IM/peptide molar ratio 70:1

For CC[C@H](C)[C@H](NC(=O)[C@@H](NC(=O)[C@H](CO)NC(=O)[C@H](CCCCN)NC(=O)[C@@H](NC(=O)[C@H](CCCCN)NC(=O)CNC(=O)[C@H](Cc1c[nH]c2ccccc12)NC(=O)[C@@H](NC(=O)CNC(=O)CNC(=O)[C@@H](NC(=O)[C@H](Cc1c[nH]c2ccccc12)NC(=O)CNC(=O)[C@H](CCCCN)NC(=O)[C@@H](NC(=O)[C@H](CCCCN)NC(=O)[C@H](CCCCN)NC(=O)[C@H](Cc1ccccc1)NC(=O)[C@H](Cc1ccccc1)NC(=O)[C@H](CCCCN)NC(=O)[C@H](CCCCN)NC(=O)[C@@H](N)CC(C)C)C(C)C)C(C)C)C(C)C)C(C)C)C(C)C)C(=O)N[C@@H](CCCCN)C(=O)O (stereo in doubt) [A4-153], the “prevention of biofilm formation” value ([1]; 25 K. pneumoniae substrains, 16 h at 37 °C, crystal violet, 620 nm) was “generally more efficient than the other peptides at preventing biofilm formation”, the “number of colistin-resistant substrains in which the peptide was the most effective at inhibiting biofilm formation” value ([1]; out of 11 colistin-resistant substrains, at ∼16 μM) was “eight” and the “number of colistin-susceptible substrains in which the peptide was the most effective at inhibiting biofilm formation” value ([1]; out of 13 colistin-susceptible substrains, at ∼16 μM) was “seven”. For the same compound, the “concentration required for 0% viable cells (estimate)” value (3T3 fibroblast cells) was 128 µM, the “viable cells compared to the control” value (3T3 fibroblast cells; 64 µM) was ~30% and the Random ([2]; G(−)IM/peptide molar ratio 0:1) was 57.7%. The α-helix ([2]; G(−)IM/peptide molar ratio 0:1) was 6.4%, the β-sheet ([2]; G(−)IM/peptide molar ratio 0:1) was 34.2% and the β-turn ([2]; G(−)IM/peptide molar ratio 0:1) was 1.7%. The Random ([2]; G(−)IM/peptide molar ratio 1:1) was 51.7%, the α-helix ([2]; G(−)IM/peptide molar ratio 1:1) was 11.9% and the β-sheet ([2]; G(−)IM/peptide molar ratio 1:1) was 32.4%. For the same compound, the β-turn ([2]; G(−)IM/peptide molar ratio 1:1) was 4.0%, the Random ([2]; G(−)IM/peptide molar ratio 5:1) was 62.9% and the α-helix ([2]; G(−)IM/peptide molar ratio 5:1) was 10.2%. It also gave a β-sheet ([2]; G(−)IM/peptide molar ratio 5:1) of 26.9%, a β-turn ([2]; G(−)IM/peptide molar ratio 5:1) of 0% and a Random [2, 5] of 62.5%. The α-helix [2, 5] was 14.8%, the β-sheet [2, 5] was 17.7% and the β-turn [2, 5] was 5.0%. The Random [2, 6] was 15.6%, the α-helix [2, 6] was 41.9% and the β-sheet [2, 6] was 41.2%. For the same compound, the β-turn [2, 6] was 1.3%, the Random [2, 7] was 0% and the α-helix [2, 7] was 78.3%. It also gave a β-sheet [2, 7] of 8.0%, a β-turn [2, 7] of 13.7% and a Random [2, 8] of 4.6%. The α-helix [2, 8] was 78.5%, the β-sheet [2, 8] was 10.2% and the β-turn [2, 8] was 6.7%. For the same compound, the Random [2, 9] was 0%, the α-helix [2, 9] was 77.4% and the β-sheet [2, 9] was 13.6%. It also gave a β-turn [2, 9] of 9.0%, a Random [2, 10] of 0% and a α-helix [2, 10] of 64.1%. It also gave a β-sheet [2, 10] of 15.1%, a β-turn [2, 10] of 20.8% and a Random ([3]; Euk33/peptide molar ratio 0:1) of 57.7%. It also gave a α-helix ([3]; Euk33/peptide molar ratio 0:1) of 6.4%, a β-sheet ([3]; Euk33/peptide molar ratio 0:1) of 34.2% and a β-turn ([3]; Euk33/peptide molar ratio 0:1) of 1.7%. The Random ([3]; Euk33/peptide molar ratio 5:1) was 66.2%, the α-helix ([3]; Euk33/peptide molar ratio 5:1) was 9.7% and the β-sheet ([3]; Euk33/peptide molar ratio 5:1) was 24.1%. For the same compound, the β-turn ([3]; Euk33/peptide molar ratio 5:1) was 0%, the Random ([3]; Euk33/peptide molar ratio 10:1) was 64.2% and the α-helix ([3]; Euk33/peptide molar ratio 10:1) was 12.2%. The β-sheet ([3]; Euk33/peptide molar ratio 10:1) was 23.6%, the β-turn ([3]; Euk33/peptide molar ratio 10:1) was 0% and the Random ([3]; Euk33/peptide molar ratio 20:1) was 60.4%. The α-helix ([3]; Euk33/peptide molar ratio 20:1) was 14.1%, the β-sheet ([3]; Euk33/peptide molar ratio 20:1) was 25.5% and the β-turn ([3]; Euk33/peptide molar ratio 20:1) was 0%. For the same compound, the Random ([3]; Euk33/peptide molar ratio 30:1) was 57.5%, the α-helix ([3]; Euk33/peptide molar ratio 30:1) was 16.2% and 16% and the β-sheet ([3]; Euk33/peptide molar ratio 30:1) was 26.3%. The β-turn ([3]; Euk33/peptide molar ratio 30:1) was 0%, the Random ([3]; Euk33/peptide molar ratio 70:1) was 51.3% and the α-helix ([3]; Euk33/peptide molar ratio 70:1) was 20.5%. For the same compound, the β-sheet ([3]; Euk33/peptide molar ratio 70:1) was 28.2%, the β-turn ([3]; Euk33/peptide molar ratio 70:1) was 0% and the “concentration at which ≥90% of bacteria are killed” value ([4]; denominator of TI) was 16 µM. For the same compound, the “concentration at which ≥90% of eukaryotic cells are killed (estimated)” value ([4]; numerator of TI) was “≈ 128 μM”.
